Where a name gives a salt, the structure may show the parent alone. Read-outs that look alike come from different tables or passages of the source.
Tested on: Acinetobacter baumannii ATCC 17978
Assay: Antimicrobial susceptibility testing: 90% growth inhibitory concentration (IC90) determination
Type: cell-based
Details: 90% growth inhibitory concentration, Acinetobacter baumannii ATCC17978, Iso-Sensitest broth, OD 600 nm over 16h, read-out: ATCC17978 IC90
Summary of the method: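 Compounds serially twofold diluted (e.g. 50 to 0.097 μM final) in Iso-Sensitest broth, inoculated at ~5×10^(5) CFU/ml, incubated at 35±2° C. OD600 read every 20 minutes over 16h. IC90 taken as concentration inhibiting 90% of growth during logarithmic phase.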

[1] = Acinetobacter baumannii, ATCC17978, 16 h

Row | Structure (SMILES) | IC90 [1] [µM] | IC90 [µM]
1 | CCc1cc(Nc2nccn3c(-c4ccc(OC)c(F)c4F)cnc23)ccc1C(=O)NCC1CN(C)C1 [Example 297, 4-[[3-(2,3-difluoro-4-methoxyphenyl)imidazo[1,2-a]pyrazin-8-yl]amino]-2-ethyl-N-[(1-methylazetidin-3-yl)methyl]benzamide] | 0.15 | 
2 | CCc1cc(Nc2nccn3c(-c4ccc(OC)c(F)c4F)cnc23)ccc1C(=O)NCC1CCN(C(=N)N)CC1 [Example 298, N-[(1-carbamimidoylpiperidin-4-yl)methyl]-4-[[3-(2,3-difluoro-4-methoxyphenyl)imidazo[1,2-a]pyrazin-8-yl]amino]-2-ethylbenzamide] | 0.17 | 
3 | CCc1cc(Nc2nccn3c(-c4ccc(OCC#N)c(F)c4F)cnc23)ccc1C(=O)NCCCN [Example 299, N-(3-aminopropyl)-4-[[3-[4-(cyanomethoxy)-2,3-difluorophenyl]imidazo[1,2-a]pyrazin-8-yl]amino]-2-ethylbenzamide;2,2,2-trifluoroacetic acid] | 0.18 | 
4 | CNCCN1CCc2cc(Nc3nccn4c(-c5ccc(OC)c(F)c5F)cnc34)ccc2C1=O [Example 300, 6-[[3-(2,3-difluoro-4-methoxyphenyl)imidazo[1,2-a]pyrazin-8-yl]amino]-2-[2-(methylamino)ethyl]-3,4-dihydroisoquinolin-1-one;hydrochloride] | 0.24 | 
5 | CCc1cc(Nc2nccn3c(-c4ccc(OC)c(F)c4F)cnc23)ccc1C(=O)NCCC1CCN(CCC(=O)O)CC1 [Example 301, 3-[4-[2-[[4-[[3-(2,3-difluoro-4-methoxyphenyl)imidazo[1,2-a]pyrazin-8-yl]amino]-2-ethylbenzoyl]amino]ethyl]piperidin-1-yl]propanoic acid] | 0.27 | 
6 | COc1ccc(-c2cnc3c(Nc4ccc5c(c4)CCN(CCO)C5=O)nccn23)c(F)c1F [Example 302, 6-[[3-(2,3-difluoro-4-methoxyphenyl)imidazo[1,2-a]pyrazin-8-yl]amino]-2-(2-hydroxyethyl)-3,4-dihydroisoquinolin-1-one] | 0.3 | 
7 | CCc1cc(Nc2nccn3c(-c4ccc(OC)c(F)c4F)cnc23)ccc1C(=O)N[C@H](C)CCN [Example 303, N-[(2R)-4-aminobutan-2-yl]-4-[[3-(2,3-difluoro-4-methoxyphenyl)imidazo[1,2-a]pyrazin-8-yl]amino]-2-ethylbenzamide;hydrochloride] | 0.36 | 
8 | CCc1cc(Nc2nccn3c(-c4ccc(OC)c(F)c4F)cnc23)ccc1C(=O)NCC(O)CN1CCCC1 (stereo not shown) [Example 304, 4-[[3-(2,3-difluoro-4-methoxyphenyl)imidazo[1,2-a]pyrazin-8-yl]amino]-2-ethyl-N-(2-hydroxy-3-pyrrolidin-1-ylpropyl)benzamide] | 0.36 | 
9 | COc1ccc(-c2cnc3c(Nc4ccc(C(=O)N(C)CCOn5nnc6cccnc65)c(C)c4)nccn23)cc1F [Example 305, 4-[[3-(3-fluoro-4-methoxyphenyl)imidazo[1,2-a]pyrazin-8-yl]amino]-N,2-dimethyl-N-[2-(triazolo[4,5-b]pyridin-3-yloxy)ethyl]benzamide] | 0.51 | 
10 | Cc1cc(Nc2nccn3c(-c4ccc(OC(F)F)cc4)cnc23)ccc1C(=O)N1CCC(C(=O)NC[C@H](O)[C@@H](O)[C@H](O)[C@H](O)CO)CC1 [Example 306, 1-[4-[[3-[4-(difluoromethoxy)phenyl]im-idazo[1,2-a]pyrazin-8-yl]amino]-2-methylbenzoyl]-N-[(2S,3R,4R,5R)-2,3,4,5,6-pentahydroxyhexyl]piperidine-4-carboxamide] | 0.59 | 
11 | CCc1cc(Nc2nccn3c(-c4ccc(OC(F)F)c(F)c4F)cnc23)ccc1C(=O)NCC1(O)CNC1 [Example 307, 4-[[3-[4-(difluoromethoxy)-2,3-difluorophenyl]imidazo[1,2-a]pyrazin-8-yl]amino]-2-ethyl-N-[(3-hydroxyazetidin-3-yl)methyl]benzamide;hydro-chloride] | 0.62 | 
12 | CCc1cc(Nc2nccn3c(-c4ccc(OC)c(F)c4F)cnc23)ccc1C(=O)N[C@@H](CN)C(=O)OC [Example 308, methyl (2S)-3-amino-2-[[4-[[3-(2,3-difluoro-4-methoxyphenyl)imidazo[1,2-a]pyrazin-8-yl]amino]-2-ethylbenzoyl]amino]propanoate; hydrochloride] |  | 0.66
13 | Cc1cc(Nc2nccn3c(-c4ccc(OC(F)F)cc4)cnc23)ccc1C(=O)N(C)CCC1CCN(CCC#N)CC1 [Example 309, N-[2-[1-(2-cyanoethyl)piperidin-4-yl]ethyl]-4-[[3-[4-(difluoromethoxy)phenyl]im-idazo[1,2-a]pyrazin-8-yl]amino]-N,2-dimethylbenzamide] | 0.69 | 
14 | CCc1cc(Nc2nccn3c(-c4ccc(OC)c(F)c4F)cnc23)ccc1C(=O)N[C@H](CN)C(=O)OC [Example 310, methyl (2R)-3-amino-2-[[4-[[3-(2,3-difluoro-4-methoxyphenyl)imidazo[1,2-a]pyrazin-8-yl]amino]-2-ethylbenzoyl]amino]propanoate; hydrochloride] |  | 0.8
15 | CCc1cc(Nc2nccn3c(-c4ccc(OC(F)F)c(F)c4F)cnc23)ccc1C(=O)NCC1(O)CCNC1 (stereo not shown) [Example 311, 4-[[3-[4-(difluoromethoxy)-2,3-difluorophenyl]imidazo[1,2-a]pyrazin-8-yl]amino]-2-ethyl-N-[(3-hydroxypyrrolidin-3-yl)methyl]benzamide;hydro-chloride] | 0.8 | 
16 | CCc1cc(Nc2nccn3c(-c4ccc(OC(F)F)c(F)c4F)cnc23)ccc1C(=O)N[C@@H](C)CN [Example 312, N-[(2S)-1-aminopropan-2-yl]-4-[[3-[4-(difluoromethoxy)-2,3-difluorophenyl]imidazo[1,2-a]pyrazin-8-yl]amino]-2-ethylbenzamide; hydrochloride] |  | 1.2
17 | Cc1cc(Nc2nccn3c(-c4ccc(OCC#CCN)c(F)c4)cnc23)ccc1C(=O)N(C)C [Example 313, 4-[[3-[4-(4-aminobut-2-ynoxy)-3-fluorophenyl]imidazo[1,2-a]pyrazin-8-yl]amino]-N,N,2-trimethylbenzamide] | 1.2 | 
18 | COc1ccc(-c2cnc3c(Nc4ccc(C(=O)NCCCN5CCNC(C(=O)O)C5)c(Cl)c4)nccn23)c(F)c1F (stereo not shown) [Example 314, 4-[3-[[2-chloro-4-[[3-(2,3-difluoro-4-methoxyphenyl)imidazo[1,2-a]pyrazin-8-yl]amino]benzoyl]amino]pro-pyl]piperazine-2-carboxylic acid;formic acid] | 1.3 | 
19 | CCc1cc(Nc2nccn3c(-c4ccc(OC(F)F)c(F)c4F)cnc23)ccc1C(=O)NC(CCN)C(F)F (stereo not shown) [Example 315, N-(4-amino-1,1-difluorobutan-2-yl)-4-[[3-[4-(difluoromethoxy)-2,3-difluorophenyl]imidazo[1,2-a]pyrazin-8-yl]amino]-2-ethylbenzamide; hydrochloride] |  | 1.3
20 | COc1ccc(-c2cnc3c(Nc4ccc(C(=O)NCCCN)c(CC(F)F)c4)nccn23)c(F)c1F [Example 316, N-(3-aminopropyl)-2-(2,2-difluoroethyl)-4-[[3-(2,3-difluoro-4-methoxyphenyl)imidazo[1,2-a]pyrazin-8-yl]amino]benzamide;formic acid] | 2.1 | 
21 | CCc1cc(Nc2nccn3c(-c4ccc(OC(F)F)c(F)c4F)cnc23)ccc1C(=O)NC(CC)CCN (stereo not shown) [Example 317, N-(1-aminopentan-3-yl)-4-[[3-[4-(difluoromethoxy)-2,3-difluorophenyl]imidazo[1,2-a]pyrazin-8-yl]amino]-2-ethylbenzamide; hydrochloride] |  | 2.5
22 | Cc1cc(Nc2nccn3c(-c4ccc(Cl)c(F)c4F)cnc23)ccc1C(=O)NC(C)CCN (stereo not shown) [Example 318, N-(4-aminobutan-2-yl)-4-[[3-(4-chloro-2,3-difluorophenyl)imidazo[1,2-a]pyrazin-8-yl]amino]-2-methylbenzamide; hydrochloride] |  | 2.5
23 | Cc1cc(Nc2nccn3c(-c4ccc(OCC#CCN)cc4)cnc23)ccc1C(=O)N(C)CCC1CCN(C)CC1 [Example 319, 4-[[3-[4-(4-aminobut-2-ynoxy)phenyl]imidazo[1,2-a]pyrazin-8-yl]amino]-N,2-dimethyl-N-[2-(1-methylpiperidin-4-yl)ethyl]benzamide;formic acid] | 3.3 | 
24 | CCc1cc(Nc2nccn3c(-c4ccc(OC)c(F)c4F)cnc23)ccc1C(=O)NC(CCN)C(F)(F)F (stereo not shown) [Example 320, N-(4-amino-1,1,1-trifluorobutan-2-yl)-4-[[3-(2,3-difluoro-4-methoxyphenyl)imidazo[1,2-a]pyrazin-8-yl]amino]-2-ethylbenzamide; hydrochloride] |  | 2.7
25 | CCc1cc(Nc2nccn3c(-c4ccc(OC)c(F)c4F)cnc23)ccc1C(=O)N[C@@H](CN)c1ccccc1 [Example 321, N-[(1R)-2-amino-1-phenylethyl]-4-[[3-(2,3-difluoro-4-methoxyphenyl)imidazo[1,2-a]pyrazin-8-yl]amino]-2-ethylbenzamide; hydrochloride] |  | 4
26 | CCc1cc(Nc2nccn3c(-c4ccc(OC)c(F)c4F)cnc23)ccc1C(=O)N[C@@H](CCN)C(=O)OC [Example 322, methyl (2S)-4-amino-2-[[4-[[3-(2,3-difluoro-4-methoxyphenyl)imidazo[1,2-a]pyrazin-8-yl]amino]-2-ethylbenzoyl]amino]butanoate; hydrochloride] |  | 4.4
27 | CCc1cc(Nc2nccn3c(-c4ccc(OC)c(F)c4F)cnc23)ccc1C(=O)NCCN1CCNCC1 [Example 323, 4-[[3-(2,3-difluoro-4-methoxyphenyl)imidazo[1,2-a]pyrazin-8-yl]amino]-2-ethyl-N-(2-piperazin-1-ylethyl)benzamide] | 0.06 | 
28 | CCc1cc(Nc2nccn3c(-c4ccc(OC(F)F)c(F)c4F)cnc23)ccc1C(=O)NCCCNC(=O)CN(C)C [Example 324, 4-[[3-[4-(difluoromethoxy)-2,3-difluorophenyl]imidazo[1,2-a]pyrazin-8-yl]amino]-N-[3-[[2-(dimethylamino)acetyl]amino]propyl]-2-ethylbenzamide] | 0.11 | 
